Laboratory results: patent US8715684B2, “Peptides inducing a CD4i conformation in HIV gp120 while retaining vacant CD4 binding site” (priority 2007, dated 2014)
Entries after “also recorded” stand apart in the source; their conditions may differ. Where two headings read alike, the source gives them in different places.

How the values were obtained:
gp120 = conditions: for Kd: quantitative ELISA, FIG. 7
gp120BaL = assay: Dot blot of m2 phages with gp120BaL, probed with panel of defining mAbs (FIG. 8); type: binding, HIV-1
Excerpt: Each dot was applied in duplicate.
A second measure of “improved peptide” characteristics is the ability to bind gp120s derived from other HIV-1 isolates. (m1 was developed using gp120451.) The preference was to identify a peptide that has the same type of effect on the BaL isolate of HIV-1 as does the m1-peptide for the 451 isolate.

gp120451 = assay: Dot blot of phage-displayed peptides incubated with gp120451, probed with defining mAbs or CD4 (FIG. 1, 4); type: binding, HIV-1
Experimental: Phages expressing the m1 peptide as protein fusions (m1) or not (fth1, as a negative control) were applied to nitrocellulose membranes as dots and incubated with or without gp120451. After washing, the filters were probed with either anti-gp120 mAb or the CG10 mAb as indicated and signals were developed by enhanced chemiluminescence (ECL)
Of the gp120-binding peptides isolated, one was particularly unique. […] As noted above, binding of CG10 to its epitope is absolutely dependent on the CD4i conformation of gp120. It was concluded that m1 binds to the CD4 binding site and acts as a CD4 mimetic, triggering a structural rearrangement locking gp120 into the CD4i conformation.
Because the CD4i conformation of gp120 can disrupt the integrity/accessibility of important neutralizing epitopes of gp120 [e.g. b12 (Xiang et al., 2002, supra)] the binding of a panel of neutralizing antibodies was tested.

CD4 = CD4 (Homo sapiens, UniProt P01730); assay: Capture ELISA of m1 phages with CD4 alone (FIG. 2E); type: binding; conditions: CD4 without gp120
Excerpt: Anti-M13 (phage) antibody was adsorbed to microplate wells to capture either m1 peptide-expressing phages (A, B, D, E) or fth1-negative control phage (C).

gp120JR-FL = assay: Binding of peptides to gp120 of the JR-FL isolate; design: species or system HIV-1

Row | Sequence | fold increase in binding / affinity for gp120 versus m1 (gp120; compared with m1) | Kd (gp120; read-out: KD for gp120 binding) | Kd (gp120; read-out: apparent affinity constant for gp120 binding) | CD4 binding by peptide-captured gp120BaL (gp120BaL) | induction of CD4i epitopes (CG10, 17b) in gp120BaL (gp120BaL) | integrity of neutralizing / CD4BS epitopes (2G12, b12, b6, m14) in peptide-captured gp120BaL (gp120BaL) | binding to gp120BaL (gp120BaL; phage-displayed peptide) | binding of CD4BS mAbs b12, b6 and m14 to peptide/gp120 complex (gp120451) | induction of the CG10 epitope (CG10 mAb binding to peptide/gp120451 complex) (gp120451; phage-displayed peptide) | binding of peptide to CD4 alone (CD4) | binding of CD4 to peptide/gp120 complex (gp120451) | binding to gp120451 (gp120451; phage-displayed peptide) | binding to gp120JR-FL (gp120JR-FL)
1 | CDRRDLPDWAIRAC [m2] | 10 fold | 6.5 nM | 6.5 nM | is able to bind CD4 itself | induces CD4i epitopes; also recorded: induces both the CG10 and 17b epitopes | maintains the integrity of the CD4BS epitopes; also recorded: intact and available | binds m2 peptide; also recorded: binds also to gp120BaL | without interfering with b12, b6 or m14 binding | induced CG10 binding | – | – | – | –
2 | CDRRDLPQWAKREC [m1] | – | – | – | – | – | – | – | bind the m1/gp120 complex very well; also recorded: without interfering with b12, b6 or m14 binding | elicit the CG10 epitope; also recorded: CG10 bound the complex; also recorded: induces the CG10 epitope; also recorded: induced CG10 binding | no affinity for CD4 alone; also recorded: CD4 does not bind m1 | CD4 itself bound the m1/gp120 complex | specifically bind gp120; also recorded: binds gp120; also recorded: binds to gp120451 | not to gp120JR-FL
